# According to ChEMBL document CHEMBL5653615 (J Biol Chem, 2013):
# Experiments:
# [1] = target: TGF-beta receptor type-2 (Homo sapiens) (UniProt P37173); experiment: Inhibition of human TGFBR2 at 18.6 nM by HotSpot assay relative to control
# [2] = target: T1, G protein-coupled receptor kinase 3 (Homo sapiens) (UniProt P35626); experiment: Inhibition of human GRK3 at 18.6 nM by HotSpot assay relative to control
# T1 sequence (whole entry): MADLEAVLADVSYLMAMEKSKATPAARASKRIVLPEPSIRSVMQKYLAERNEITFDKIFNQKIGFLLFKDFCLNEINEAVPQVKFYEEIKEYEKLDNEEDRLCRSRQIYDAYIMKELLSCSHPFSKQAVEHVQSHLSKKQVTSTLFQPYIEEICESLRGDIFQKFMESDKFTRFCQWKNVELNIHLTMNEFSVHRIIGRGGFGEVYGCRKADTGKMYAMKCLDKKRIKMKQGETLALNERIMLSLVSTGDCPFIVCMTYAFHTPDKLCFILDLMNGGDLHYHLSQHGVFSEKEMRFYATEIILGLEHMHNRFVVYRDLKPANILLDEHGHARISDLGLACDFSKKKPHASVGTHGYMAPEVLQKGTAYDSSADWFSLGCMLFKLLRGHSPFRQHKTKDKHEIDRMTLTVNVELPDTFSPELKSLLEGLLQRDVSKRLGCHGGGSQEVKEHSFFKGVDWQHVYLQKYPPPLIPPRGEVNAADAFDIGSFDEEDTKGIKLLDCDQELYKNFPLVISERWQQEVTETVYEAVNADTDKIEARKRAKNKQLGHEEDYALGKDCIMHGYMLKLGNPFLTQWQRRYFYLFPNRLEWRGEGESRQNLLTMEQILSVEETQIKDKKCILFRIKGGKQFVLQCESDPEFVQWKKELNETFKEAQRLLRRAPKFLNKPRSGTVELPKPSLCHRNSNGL
# [3] = target: T2, 3-phosphoinositide-dependent protein kinase 1 (Homo sapiens) (UniProt O15530); experiment: Inhibition of human PDPK1 at 18.6 nM by HotSpot assay relative to control
# T2 sequence (whole entry): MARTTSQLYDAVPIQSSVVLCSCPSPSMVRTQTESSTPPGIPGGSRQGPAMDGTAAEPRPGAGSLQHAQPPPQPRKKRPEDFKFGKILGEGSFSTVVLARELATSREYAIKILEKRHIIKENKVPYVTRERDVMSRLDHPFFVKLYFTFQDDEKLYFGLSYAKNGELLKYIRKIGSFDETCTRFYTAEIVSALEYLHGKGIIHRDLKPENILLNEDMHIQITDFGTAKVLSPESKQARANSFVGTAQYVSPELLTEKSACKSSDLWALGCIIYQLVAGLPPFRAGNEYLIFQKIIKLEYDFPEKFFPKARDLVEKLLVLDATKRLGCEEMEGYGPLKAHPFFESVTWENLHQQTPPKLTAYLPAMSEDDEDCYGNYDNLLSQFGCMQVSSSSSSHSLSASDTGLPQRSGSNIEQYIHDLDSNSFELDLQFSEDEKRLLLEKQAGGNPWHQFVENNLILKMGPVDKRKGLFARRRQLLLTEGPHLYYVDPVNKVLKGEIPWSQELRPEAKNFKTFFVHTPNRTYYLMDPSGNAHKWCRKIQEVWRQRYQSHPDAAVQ
# [4] = target: T3, Serine/threonine-protein kinase BRSK2 (Homo sapiens) (UniProt Q8IWQ3); experiment: Inhibition of human BRSK2 at 18.6 nM by HotSpot assay relative to control
# T3 sequence (whole entry): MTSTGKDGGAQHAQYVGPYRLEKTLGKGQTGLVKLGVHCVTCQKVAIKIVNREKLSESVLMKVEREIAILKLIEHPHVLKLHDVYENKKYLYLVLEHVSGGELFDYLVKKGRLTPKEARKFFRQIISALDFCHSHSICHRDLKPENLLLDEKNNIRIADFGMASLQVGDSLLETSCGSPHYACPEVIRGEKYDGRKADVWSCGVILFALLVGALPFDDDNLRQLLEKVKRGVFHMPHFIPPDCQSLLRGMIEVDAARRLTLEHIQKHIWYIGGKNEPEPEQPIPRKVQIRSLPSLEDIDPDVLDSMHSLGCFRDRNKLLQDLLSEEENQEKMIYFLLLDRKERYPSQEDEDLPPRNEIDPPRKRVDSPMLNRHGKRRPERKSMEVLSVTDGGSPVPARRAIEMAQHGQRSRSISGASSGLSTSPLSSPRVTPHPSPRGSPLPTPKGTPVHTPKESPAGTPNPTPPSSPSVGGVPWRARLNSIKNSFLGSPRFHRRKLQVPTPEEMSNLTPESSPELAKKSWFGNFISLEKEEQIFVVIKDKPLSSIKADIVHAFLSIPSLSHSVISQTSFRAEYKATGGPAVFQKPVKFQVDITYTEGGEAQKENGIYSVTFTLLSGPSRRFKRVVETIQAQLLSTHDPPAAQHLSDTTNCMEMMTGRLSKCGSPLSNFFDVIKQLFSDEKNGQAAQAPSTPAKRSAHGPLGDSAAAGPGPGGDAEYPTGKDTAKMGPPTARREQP
# [5] = target: PAS domain-containing serine/threonine-protein kinase (Homo sapiens) (UniProt Q96RG2); experiment: Inhibition of human PASK at 18.6 nM by HotSpot assay relative to control
# [6] = organism: Homo sapiens; experiment: Inhibition of human CDK2/cyclin A at 18.6 nM by HotSpot assay relative to control
# [7] = target: Tyrosine-protein kinase Fes/Fps (Homo sapiens) (UniProt P07332); experiment: Inhibition of human FES at 1.82 nM by HotSpot assay relative to control
# [8] = target: T1, G protein-coupled receptor kinase 3 (Homo sapiens); experiment: Inhibition of human GRK3 at 1.82 nM by HotSpot assay relative to control
# Sequence of Tyrosine-protein kinase Fes/Fps (Homo sapiens) (P07332 whole entry): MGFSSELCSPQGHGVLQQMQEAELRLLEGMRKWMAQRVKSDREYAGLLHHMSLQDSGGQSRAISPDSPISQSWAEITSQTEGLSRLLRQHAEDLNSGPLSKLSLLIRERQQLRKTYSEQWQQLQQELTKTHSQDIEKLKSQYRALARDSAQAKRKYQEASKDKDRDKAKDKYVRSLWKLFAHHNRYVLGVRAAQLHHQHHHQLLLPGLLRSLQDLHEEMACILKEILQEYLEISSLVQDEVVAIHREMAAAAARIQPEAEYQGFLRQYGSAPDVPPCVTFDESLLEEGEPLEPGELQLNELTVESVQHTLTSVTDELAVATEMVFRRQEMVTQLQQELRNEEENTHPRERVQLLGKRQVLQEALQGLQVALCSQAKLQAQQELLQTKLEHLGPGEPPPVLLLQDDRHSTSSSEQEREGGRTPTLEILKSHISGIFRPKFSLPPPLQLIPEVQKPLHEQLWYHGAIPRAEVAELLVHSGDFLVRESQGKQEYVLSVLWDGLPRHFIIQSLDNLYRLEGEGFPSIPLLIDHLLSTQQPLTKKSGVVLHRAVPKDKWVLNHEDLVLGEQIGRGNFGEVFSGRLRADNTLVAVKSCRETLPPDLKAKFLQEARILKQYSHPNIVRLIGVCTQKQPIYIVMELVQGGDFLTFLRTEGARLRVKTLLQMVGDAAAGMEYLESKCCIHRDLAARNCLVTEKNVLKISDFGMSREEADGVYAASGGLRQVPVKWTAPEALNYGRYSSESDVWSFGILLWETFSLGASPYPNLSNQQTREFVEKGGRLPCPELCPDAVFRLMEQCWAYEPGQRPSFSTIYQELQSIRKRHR
# Sequence of TGF-beta receptor type-2 (Homo sapiens) (P37173 whole entry): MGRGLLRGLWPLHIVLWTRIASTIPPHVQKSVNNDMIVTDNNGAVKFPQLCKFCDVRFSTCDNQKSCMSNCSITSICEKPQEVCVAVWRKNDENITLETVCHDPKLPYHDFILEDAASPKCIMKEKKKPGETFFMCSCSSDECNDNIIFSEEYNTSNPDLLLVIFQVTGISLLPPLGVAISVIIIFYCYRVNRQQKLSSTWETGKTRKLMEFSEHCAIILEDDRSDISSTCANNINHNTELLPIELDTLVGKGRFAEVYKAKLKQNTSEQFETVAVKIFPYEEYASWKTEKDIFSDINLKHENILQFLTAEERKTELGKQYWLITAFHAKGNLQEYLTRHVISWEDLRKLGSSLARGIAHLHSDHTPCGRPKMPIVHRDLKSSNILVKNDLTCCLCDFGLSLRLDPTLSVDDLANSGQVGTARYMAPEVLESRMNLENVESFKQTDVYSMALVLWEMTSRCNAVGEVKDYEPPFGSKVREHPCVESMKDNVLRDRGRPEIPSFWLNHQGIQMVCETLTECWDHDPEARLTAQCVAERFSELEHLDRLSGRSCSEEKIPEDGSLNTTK
# Sequence of PAS domain-containing serine/threonine-protein kinase (Homo sapiens) (Q96RG2 whole entry, the tested form may be a part): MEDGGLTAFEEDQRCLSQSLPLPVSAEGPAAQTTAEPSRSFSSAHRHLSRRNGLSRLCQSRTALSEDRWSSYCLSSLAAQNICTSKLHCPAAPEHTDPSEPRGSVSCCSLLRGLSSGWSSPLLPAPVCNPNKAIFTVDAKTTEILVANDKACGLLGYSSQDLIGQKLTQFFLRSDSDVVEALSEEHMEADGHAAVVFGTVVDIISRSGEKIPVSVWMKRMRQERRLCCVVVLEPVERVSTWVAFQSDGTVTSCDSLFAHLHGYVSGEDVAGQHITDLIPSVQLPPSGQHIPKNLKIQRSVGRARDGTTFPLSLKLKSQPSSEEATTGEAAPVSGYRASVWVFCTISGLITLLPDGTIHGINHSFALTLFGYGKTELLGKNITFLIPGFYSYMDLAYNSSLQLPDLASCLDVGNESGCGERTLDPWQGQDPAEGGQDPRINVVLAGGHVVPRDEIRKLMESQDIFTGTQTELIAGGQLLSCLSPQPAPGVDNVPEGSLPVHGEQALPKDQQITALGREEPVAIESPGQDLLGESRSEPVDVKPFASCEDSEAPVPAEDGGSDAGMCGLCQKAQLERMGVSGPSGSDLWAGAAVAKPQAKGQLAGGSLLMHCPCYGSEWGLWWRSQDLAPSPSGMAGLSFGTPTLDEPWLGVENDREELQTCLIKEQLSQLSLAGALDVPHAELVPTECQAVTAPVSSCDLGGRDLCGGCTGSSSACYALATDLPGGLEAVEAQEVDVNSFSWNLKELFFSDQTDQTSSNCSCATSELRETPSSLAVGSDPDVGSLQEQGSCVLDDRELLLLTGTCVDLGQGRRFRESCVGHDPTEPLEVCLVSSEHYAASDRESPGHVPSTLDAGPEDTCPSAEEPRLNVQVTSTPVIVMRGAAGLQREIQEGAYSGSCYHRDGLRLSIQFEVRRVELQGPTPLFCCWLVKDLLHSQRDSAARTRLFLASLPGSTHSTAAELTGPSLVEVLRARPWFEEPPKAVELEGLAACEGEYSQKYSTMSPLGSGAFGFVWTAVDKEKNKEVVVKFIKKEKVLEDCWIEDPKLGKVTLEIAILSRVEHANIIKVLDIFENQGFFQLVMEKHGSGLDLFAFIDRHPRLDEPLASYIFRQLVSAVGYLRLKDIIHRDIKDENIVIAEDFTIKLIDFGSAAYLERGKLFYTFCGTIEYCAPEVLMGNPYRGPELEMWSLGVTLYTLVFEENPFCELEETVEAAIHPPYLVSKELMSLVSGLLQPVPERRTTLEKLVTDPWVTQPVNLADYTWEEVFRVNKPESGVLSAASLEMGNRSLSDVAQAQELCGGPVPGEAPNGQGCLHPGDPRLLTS
inhibition [1],inhibition [2],inhibition [3],inhibition [4],inhibition [5],inhibition [6],inhibition [7],inhibition [8],Compound
8.98%,-0.17%,-0.41%,-4.68%,-4.72%,-1.46%,–,–,C[C@]1(O)C[C@@H](c2nc(-c3ccc4ccc(-c5ccccc5)nc4c3)c3c(N)nccn32)C1
–,–,–,–,–,–,5.24%,-5.67%,C[C@@]1(C(=O)Nc2ccc(F)nc2)CCCN1c1nc(Nc2cc(C3CC3)n[nH]2)c2cccn2n1
